Where two headings read alike, the source gives them in different places.
Legend:
[1] = biological target: T1, interaction between GST_SH3_p130Cas and MBP_shortPPII_ErbB2 recombinant proteins (Homo sapiens, UniProt P56945); assay: Competitive ELISA binding assay; format: biochemical; settings: increasing concentration of compound
T1 construct: fragment of p130Cas protein (aminoacids 3–71); made in house; host or cells: Escherichia coli BL21
T1 sequence (P56945 3-71): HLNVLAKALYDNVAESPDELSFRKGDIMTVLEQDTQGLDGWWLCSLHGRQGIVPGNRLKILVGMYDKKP
Experimental: The day after, washing steps and saturation were performed using PBS and 3%BSA in PBS at room temperature. MBP-tagged ErbB2 purified recombinant proteins and MBP_ctrl (100 nM/well) were added in 100 μl/well of PBS for 2 h. After washing, anti-MBP mouse monoclonal antibody (0.25 μg/ml) was added for 2 h followed by peroxidase conjugated anti-mouse secondary antibody for 1 h.
For validation of inhibitory activity of selected compounds, ELISA binding assay was setup as reported above.

[2] = system: ErbB2-positive breast cancer patients; settings: cited from earlier work
[3] = biological target: T2, endogenous p130Cas/ErbB2 complex in BT474 cells (Homo sapiens, UniProt P56945); assay: Co-immunoprecipitation of p130Cas/ErbB2 in BT474 cells; format: cell-based; settings: BT474 cells pre-treated for 24 hours
T2 construct: endogenous p130Cas/ErbB2 complex in BT474 cells; host or cells: BT474
T2 sequence (P56945 1-870): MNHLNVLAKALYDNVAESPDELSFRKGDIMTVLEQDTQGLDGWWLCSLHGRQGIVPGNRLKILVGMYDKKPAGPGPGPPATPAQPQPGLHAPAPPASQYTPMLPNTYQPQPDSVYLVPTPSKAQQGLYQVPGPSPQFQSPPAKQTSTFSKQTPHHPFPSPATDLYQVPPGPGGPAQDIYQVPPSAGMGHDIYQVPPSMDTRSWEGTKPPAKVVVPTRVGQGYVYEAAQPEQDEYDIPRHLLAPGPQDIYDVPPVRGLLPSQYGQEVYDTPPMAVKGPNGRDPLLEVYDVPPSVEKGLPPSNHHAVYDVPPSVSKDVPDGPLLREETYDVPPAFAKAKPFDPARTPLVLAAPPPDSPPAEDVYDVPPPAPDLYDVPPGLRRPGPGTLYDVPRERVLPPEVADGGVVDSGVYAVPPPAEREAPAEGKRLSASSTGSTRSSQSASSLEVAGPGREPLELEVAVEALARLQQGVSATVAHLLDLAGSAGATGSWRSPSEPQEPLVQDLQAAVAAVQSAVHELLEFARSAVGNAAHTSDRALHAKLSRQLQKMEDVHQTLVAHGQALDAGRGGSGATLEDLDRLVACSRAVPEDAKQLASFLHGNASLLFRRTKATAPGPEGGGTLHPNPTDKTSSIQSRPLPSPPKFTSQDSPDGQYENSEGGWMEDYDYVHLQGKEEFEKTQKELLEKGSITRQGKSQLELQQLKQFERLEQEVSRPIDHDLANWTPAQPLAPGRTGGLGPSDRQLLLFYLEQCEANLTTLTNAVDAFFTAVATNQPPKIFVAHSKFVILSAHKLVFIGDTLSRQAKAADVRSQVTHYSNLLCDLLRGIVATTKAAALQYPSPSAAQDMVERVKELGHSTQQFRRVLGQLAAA
Experimental: GAPDH expression was used as loading control. Data are represented as mean ± SD. **p < 0.01, ***p < 0.001.
To assess whether these compounds could interfere with p130Cas/ErbB2 association in a cellular context, ErbB2-positive BT474 breast cancer cells were pre-treated for 24 hours with 1 or 2 and subjected to co-immunoprecipitation experiments.

[4] = system: BT474 cells; assay: Cytotoxicity assay (MTT); format: cell-based, human; settings: BT474, three days, serial dilutions 250-0.12 μM
Experimental: For cytotoxicity assay BT474 cells were seeded at 5000 cells/well concentration (100% confluency) in a 96-well cell culture plate and incubated with serial dilutions of 1 and 2 compounds (from 250 μM to 0.12 μM). Cytotoxicity was evaluated after 3 days by MTT assay (11465007001 Roche, Cell Proliferation Kit I) following manufacturer instruction.

[5] = biological target: T3, GST_SH3_p130Cas recombinant protein (SH3 domain of p130Cas) (Homo sapiens, UniProt P56945); assay: Fluorescence quenching of Fl-GST_SH3_p130Cas by compounds; format: binding
T3 construct: fragment of p130Cas protein (aminoacids 3–71); made in house; host or cells: Escherichia coli BL21
T3 sequence (P56945 3-71): T1 sequence (P56945 3-71)
Experimental: To experimentally validate the binding of compound 1 and 2 on GST_SH3_p130Cas recombinant protein, fluorescence quenching experiments were performed.
The fluorescence spectra of Fl-GST_SH3_p130Cas in the absence and in the presence of 1 and 2 at different concentrations are shown in Fig. 4C.
All fluorescence spectra were recorded with a Horiba Jobin Yvon Fluorolog3 TCSPC spectrofluorophotometer with 1.0 cm quartz cells For fluorescence experiments, GST_SH3_p130Cas was firstly tagged with fluorescein (Fl-GST_SH3_p130Cas) using a methodology described in the literature[34] see Supporting Information). […] Fluorescence emission spectra of Fl-GST_SH3_p130Cas in the presence of 1 and 2 were obtained using the following concentrations: Fl-GST_SH3_p130Cas = 0.7 μM; 1 and 2 = 0–21 μM.
(§1) The variation in fluorescence emission at 518 nm of Fl-GST_SH3_p130Cas was monitored in all experiments.
Fluorescence data analysis
The obtained spectroscopic data were analysed by a […] non linear least-squares fit procedures reported in Equation 2 2: […]
in which y is the binding derived by measuring fluorescence intensity, [Q] is the concentration of tested compound, Bmax is the maximum amount of protein/compound complex (Fl-GST_SH3_p130Cas/compound) formed at saturation and Kd is the equilibrium dissociation constant. […]

[6] = system: SKBR3 breast cancer cells; assay: Cell proliferation assay (MTT), SKBR3; format: cell-based; settings: Homo sapiens, SK-BR-3, 72 h, SKBR3, 3 days
Experimental: (§2) For proliferation assay BT474, SKBR3 and SKH100 cells were seeded in 8 replicates at 1000 cells/well concentration (25% confluency) in four different 96-well cell culture plates and then incubated with increasing concentration of 1 and 2 for 3 days. Changes in proliferation rate were detected by MTT assay (11465007001 Roche, Cell Proliferation Kit I) following manufacturer instruction. Sterile DMSO was used as control for non-specific solvent effect on proliferation.

[7] = system: ErbB2-negative HEK 293T cells; assay: Proliferation assay of ErbB2-negative HEK 293T cell line; format: cell-based, human; settings: serial dilutions, three days, MTT
Experimental: Figure S5. Proliferation assay of ErbB2-negative HEK 293T cell line treated with inhibitory […]
To assess whether 1 and 2 could affect cell proliferation independently from p130Cas/ErbB2 inhibition, ErbB2 ErbB2-negative cell line, HEK 293T cells were treated with serial dilutions of 1 and 2 (or sterile DMSO). After three days, live cells were detected by standard MTT assay. […]
any effect even at high concentration.
(1 picture or pasted object on this page, not shown here)

[8] = system: BT474 breast cancer cells; assay: Cell proliferation assay (MTT), BT474; format: cell-based; settings: Homo sapiens, BT-474, 72 h, BT474, 3 days
Experimental: as §2

[9] = system: SKBR3 cells; assay: Combination with Trastuzumab in SKBR3 cells (MTT); format: cell-based, human; settings: SKBR3, Trastuzumab 25 μg/ml, three days
Experimental: (§3) Figure 6 Impact of 1 and 2 compounds on BT474 breast cancer cells. (A) To assess whether 1 and 2 could trigger cytotoxic effects on living cells, BT474 cells were treated with serial dilutions of 1 and 2 (or sterile DMSO). After three days, live cells were detected by standard MTT assay, highlighting the appearance of cytotoxic effects above 75 μM for compound 1. […] Cells were treated with different concentration of the 1 and 2 and proliferation was assayed three days later by performing MTT assay. Results were fitted with four-parameter dose-response curve using GraphPad Prism7 software. […] (E) SKBR3 cells were treated with Trastuzumab (25 μg/ml) either alone or in combination with compound 1 or 2 at the indicated doses. After three days, live cells were detected by standard MTT assay. Data are represented as mean ± SD. *p < 0.05, **p < 0.01. […] After three days, live cells were detected by standard MTT assay. […]
(§4) For proliferation assay BT474, SKBR3 and SKH100 cells were seeded in 8 replicates at 1000 cells/well concentration (25% confluency) in four different 96-well cell culture plates and then incubated with increasing concentration of 1 and 2 for 3 days. Changes in proliferation rate were detected by MTT assay (11465007001 Roche, Cell Proliferation Kit I) following manufacturer instruction. […]

[10] = system: SKH100 Trastuzumab-resistant cells; assay: Combination with Trastuzumab in SKH100 Trastuzumab-resistant cells (MTT); format: cell-based, human; settings: SKH100, Trastuzumab 100 μg/ml, three days
Experimental: as §3, §4

[11] = biological target: T4, binding between Fl-GST_SH3_p130Cas and MBP_shortPPII_ErbB2 (Homo sapiens, UniProt P56945); assay: Fluorescence experiment: MBP_shortPPII_ErbB2 added to Fl-GST_SH3_p130Cas/compound complex; settings: compared to compound 2; MBP_shortPPII_ErbB2 0.1-0.75 μM
T4 construct: fragment of p130Cas protein (aminoacids 3–71); made in house; host or cells: Escherichia coli BL21
T4 sequence (P56945 3-71): T1 sequence (P56945 3-71)
Experimental: For fluorescence experiments, GST_SH3_p130Cas was firstly tagged with fluorescein (Fl-GST_SH3_p130Cas) using a methodology described in the literature[34] see Supporting Information). […] Fluorescence emission spectra of Fl-GST_SH3_p130Cas in the presence of 1 and 2 were obtained using the following concentrations: Fl-GST_SH3_p130Cas = 0.7 μM; 1 and 2 = 0–21 μM.
as §1

[12] = biological target: T5, MBP_shortPPII_ErbB2 (human (by the printed accession …, UniProt P04626-1 1103-1194)); assay: other fluorescence titration; Fl-GST_SH3_p130Cas fixed at 3.0 μM, MBP_shortPPII_ErbB2 0.05–3.0 μM; emission at 518 nm; nonlinear least-squares fit; settings: both partners purified
T5 construct: ErbB2 cytosolic portion, aminoacids 1103-1194, holds the polyproline type II motif V[RPQPPSP]R at 1145-1153 (isoform 1, P04626-1); the printed residue limits are kept; source: E. coli BL21, purified (Sepharose amylose column), dialyzed against PBS; not shown: MBP, N-terminal, kept

[13] = biological target: T6, MBP_longPPII_ErbB2 (human (by the printed accession …, UniProt P04626-1 1103-1255)); assay: co-IP; in vitro binding assay: GST-tagged p130Cas and MBP-tagged ErbB2 purified proteins mixed in Interaction Buffer with 1% BSA overnight at 4 °C; immunoprecipitated with anti-MBP and proteinA Sepharose; blot anti-GST; settings: both partners purified
T6 construct: ErbB2 cytosolic portion, aminoacids 1103-1255 (isoform 1, P04626-1); the printed residue limits are kept; source: E. coli BL21, purified (Sepharose amylose column), dialyzed against PBS; not shown: MBP, N-terminal, kept

[14] = biological target: T5, MBP_shortPPII_ErbB2; assay: far-Western, overlay or dot blot; 1 μl of GST-tagged p130Cas proteins spotted on nitrocellulose; probed with MBP-tagged ErbB2 protein (1 μg/ml) in Interaction Buffer (50 mM Tris-HCl pH7.4, 150 mM NaCl, 1%Triton-X100) at 4 °C overnight; detected with anti-MBP; settings: both partners purified
[15] = biological target: T7, MBP_R → D_shortPPII_ErbB2 (human (by the printed accession …, UniProt P04626-1 1103-1194, R to D at position 44 (position 1146 in the original ErbB2 sequence))); assay: ELISA; direct binding: 100 nM/well of GST_SH3_p130Cas (or mutants) coated in PBS overnight at 4 °C; MBP-tagged ErbB2 proteins (100 nM/well) in PBS for 2 h; detected with anti-MBP; normalized on GST_ctrl and MBP_ctrl; settings: both partners purified
T7 construct: ErbB2 cytosolic portion, aminoacids 1103-1194, with R to D at position 44 of the fragment (1146 in ErbB2); motif V[DPQPPSP]R; source: E. coli BL21, purified (Sepharose amylose column); not shown: MBP, N-terminal, kept

## N#CC(Cc1ccc(O)cc1)c1ccc(O)cc1 (stereo not drawn) [DPN, Diarylpropionitrile, reference compound]
[1]
  inhibition of GST_SH3_p130Cas/MBP_shortPPII_ErbB2 association: no modulation

## T-DM1
[2]
  patients in whom treatment failed to induce response: 57%

## NS(=O)(=O)N[C@H]1CCCc2ccccc21 [Compound 2]
[3]
  association of p130Cas to ErbB2 (co-immunoprecipitation): reduced the association
[1]
  inhibition of GST_SH3_p130Cas/MBP_shortPPII_ErbB2 association: dose-dependent inhibition
[4]
  concentration at which cytotoxic effects appear: > 250 µM
[5]; fluorescence quenching of Fl-GST_SH3_p130Cas, emission at 518 nm, nonlinear least-squares fit, read-out: KD (equilibrium dissociation constant)
  Kd: 5 µM
[6]
  EC50: 274 ± 27.2 µM
[7]
  effect on cell proliferation: did not have
[8]
  EC50: 240 ± 26 µM

## O=C(CNC(=O)NC1CC1)Nc1nnc(C23CC4CC(CC(C4)C2)C3)s1 [Compound 1]
[3]
  association of p130Cas to ErbB2 (co-immunoprecipitation): reduced the association
[9]
  effect on efficacy of Trastuzumab treatment: significantly enhances
[1]
  inhibition of GST_SH3_p130Cas/MBP_shortPPII_ErbB2 association: dose-dependent inhibition
[10]
  effect on sensitivity of resistant cells to Trastuzumab: partially restores
[5]
  Kd: 0.2 µM
[11]
  efficiency in preventing binding between Fl-GST_SH3_p130Cas and MBP_shortPPII_ErbB2: more efficient
[7]
  effect on cell proliferation: no significant effect
[8]
  EC50: 52.3 ± 6.38 µM

B1: Fl-GST_SH3_p130Cas (domain or fragment, UniProt P56945 3-71, looked up)
chain: T1 sequence (P56945 3-71)
modifications: also: fluorescein (site not given here)
notes: source: E. coli BL21, purified (Sepharose glutathione column), then tagged with fluorescein; not shown: GST, N-terminal, kept
[12]
  Kd: 0.0407 µM

B2: GST_SH3_p130Cas (domain or fragment, UniProt P56945 3-71, looked up)
chain: T1 sequence (P56945 3-71)
notes: p130Cas SH3 domain, aminoacids 3-71, amplified from cDNA and cloned in pGEX-4T3; also called SH3 domain of p130Cas; source: E. coli BL21, purified (Sepharose glutathione column), dialyzed against PBS; not shown: GST, N-terminal, kept
[13]
  binding result: binds
[14]
  binding result: binds
[15]
  binding result: binds

From article PMC6395809 (Scientific Reports, 2019)
